Patent US20240417359A1, “PRECURSORS OF PHENOLIC FRAGRANT COMPOUNDS” (GIVAUDAN SA, priority 2021, published 2024)
“Also recorded” adds a separate entry of the source.

How the values were obtained:
[1] = Washtest with liquid detergent and sensory evaluation of fabric by expert panel; conditions: for odour released on dry fabric: comparison of double bond position Δ-2, Δ-3, Δ-4
Experimental: The wet and line-dried fabric (1 and 4 days) was assessed by a panel of 4-6 experts with regard to odour intensity and quality. The odour intensity was recorded on an intensity scale of 0 (odourless) to 5 (extremely strong).
The odour intensity was recorded on an intensity scale of 0 (odorless) to 5 (extremely strong).
Heavy duty liquid detergent samples were prepared and used in washtests and subsequent sensory evaluation of the washed and dried fabric as described in Example 60a and c. The odour intensity was recorded on an intensity scale of 0 (odourless) to 5 (extremely strong).

[2] = as above; conditions: Table 2; dry fabric 3 days; scale 0 to 5
[3] = Odour description on paper blotter; conditions: 1% solution in EtOH on paper blotter, 24 h
[4] = Application in shampoo base: sensory evaluation of washed hair swatches by expert panel; parameters: species or system human; conditions: Table 4; for odour intensity, wet / odour on dry hair: 0.2% by weight in shampoo base; for odour intensity, wet: wet hair swatch, scale 0 (odourless) to 5 (extremely strong); for odour intensity, 1 day: dried hair swatch 1 day; for odour intensity, 1 day / odour intensity, 3 days: scale 0 to 5; for odour intensity, 3 days: dried hair swatch 3 days
Experimental: Odour-neutral human hair swatches were wetted with warm tap water and lathered delicately with 2 mL of the above hair shampoo samples for 30 sec by hand wearing gloves. The lathered hair swatches were left in a plastic bowl for 2 min, then rinsed under running tap water for 20 sec. After removing excess water by squeezing the hair swatches between two fingers, they were left to dry in open air. The wet and dried hair swatches (1 and 3 days) were assessed by a panel of 4-6 experts with regard to odour intensity and quality. The odour intensity was recorded on an intensity scale of 0 (odourless) to 5 (extremely strong).

[5] = Biodegradability, manometric respirometry test (OECD 301F); conditions: pass level 60% oxygen consumption of theory
Text: The results of the biodegradability assessment by the manometric respirometry test (OECD guideline for the testing of materials No. 301F, Paris 1992) are summarized in Table 6.
A compound can be classified biodegradable, if it reaches the pass level of 60% oxygen consumption of theory required for complete mineralization.
It is readily biodegradable, if the pass level is reached within 10 days within the 28-day period of the test. The 10-day window begins when the degree of biodegradation has reached 10%. If the pass level is obtained after 28-day period of the test, the compound can be classified as inherently biodegradable.

[6] = Colour stability in liquid detergent base (visual inspection); type: physicochemical; conditions: 0.2% by weight in unperfumed liquid detergent base, compared to unperfumed base
Text: The above prepared samples were visually inspected in comparison to an unperfumed base sample (sample C).

[7] = Table 2, dry fabric 1 day, scale 0 to 5
[8] = Table 2, liquid detergent washtest
[9] = Table 2, liquid detergent washtest, wet fabric, scale 0 (odorless) to 5 (extremely strong)
[10] = Table 3, dry fabric 1 day, scale 0 to 5
[11] = Table 3, dry fabric 4 days, scale 0 to 5
[12] = Table 3, heavy duty liquid detergent washtest, wet fabric, scale 0 to 5
[13] = Table 3, heavy duty liquid detergent washtest

Row | Compound | Odour description [3] | odour intensity, wet [4] | odour intensity, 1 day [4] | odour intensity, 3 days [4] | odour intensity, 1 day [1, 10] | odour intensity, 4 days [1, 11] | odour intensity, wet [1, 12] | further results
1 | CC/C=C\CCC(CCCCCCCCC)Oc1ccc(C=O)cc1OCC (stereo not drawn) [(Z)-3-ethoxy-4-(hexadec-3-en-7-yloxy)benzaldehyde, reference compound] | – | – | – | – | – | – | – | odour intensity, 1 day [1, 7]: 1.2; odour on dry fabric [1, 8]: rubbery, metallic; odour intensity, wet [1, 9]: 1.1; odour released on dry fabric [1]: weak and unpleasant odours; odour intensity, 3 days [2]: 1.6
2 | CCCCCCCCC(C)=CCCOc1ccc(C=O)cc1OCC [Example 90, 3-ethoxy-4-((4-methyldodec-3-en-1-yl)oxy)benzaldehyde] | powdery, vanilla, creamy, slightly green, sesame seed, sharp, technical | 1.1 | 2.7 | 2.9 | – | – | – | –
3 | CC/C=C\C/C=C\COc1ccc(C=O)cc1OCC [3-ethoxy-4-(((2Z,5Z)-octa-2,5-dien-1-yl)oxy)benzaldehyde, reference compound] | – | – | – | – | – | – | – | odour intensity, 1 day [1, 7]: 2.8; odour on dry fabric [1, 8]: metallic; odour intensity, wet [1, 9]: 0.9; odour released on dry fabric [1]: weak and unpleasant odours; odour intensity, 3 days [2]: 2.3
4 | CCOc1cc(C=O)ccc1OCCC=CC(C)CCC=C(C)C (stereo not drawn) [Example 84, 4-((5,9-dimethyldeca-3,8-dien-1-yl)oxy)-3-ethoxybenzaldehyde] | powdery, vanilla, chocolate milk, slightly fresh, fatty, watery, melon | 0.7 | 2.7 | 3.6 | – | – | – | –
5 | CCCCCC[C@@H](C/C=C\CCCCCCCC(=O)OC)Oc1ccc(CCC(C)=O)cc1 [Example 2, methyl (S,Z)-12-(4-(3-oxobutyl)phenoxy)octadec-9-enoate] | powdery fruity raspberry, green, fatty | – | – | – | – | – | – | Biodegradation in % [5]: 88%
6 | CC/C=C\CC(CCCCCCCCC)Oc1ccc(C=O)cc1OCC (stereo not drawn) [Example 28, (Z)-3-ethoxy-4-(Pentadec-3-en-6-yloxy)benzaldehyde] | powdery, creamy, vanilla, aldehydic, mandarin | 1.7 | 3.5 | 4.4 | 2.3 | 2.6 | 2.1 | Colour of liquid detergent sample (visual inspection) [6]: optically identical to the unperfumed base; odour intensity, 1 day ([1]; Table 1, line-dried fabric 1 day, scale 0 to 5): 2.3; odour intensity, 4 days ([1]; Table 1, line-dried fabric 4 days, scale 0 to 5): 2.6; odour intensity, wet ([1]; Table 1, liquid detergent 0.2% by weight, 40° C. machine wash, cotton/elastan fabric, wet, scale 0 (odourless) to 5 (extremely strong)): 2.1; odour released from washed fabric ([1]; liquid detergent washtest, dry fabric): mandarin, vanilla and powdery fragrance; odour on dry hair [4]: mandarin, vanilla
7 | CC/C=C\CC(CCCCC)Oc1ccc(C=O)cc1OCC (stereo not drawn) [Example 17, (Z)-3-ethoxy-4-(undec-3-en-6-yloxy)benzaldehyde] | powdery (dry, vanilla, chocolate) | – | – | – | – | – | – | Biodegradation in % [5]: 86%
8 | CCOc1cc(C=O)ccc1OCCC=C(C)CCc1ccccc1 [Example 47, 3-ethoxy-4-((4-methyl-6-phenylhex-3-en-1-yl)oxy)benzaldehyde] | sweet, vanilla, ice cream, powdery, fruity, raspberry, sorbet | 1.4 | 2.7 | 2.1 | 2.7 | 3.0 | 1.5 | –
9 | CCCCCC(C)=CCCOc1ccc(C=O)cc1OCC [Example 42, 3-ethoxy-4-((4-methylnon-3-en-1-yl)oxy)benzaldehyde] | powdery, vanilla, sweet, sugary | 1.0 | 1.4 | 1.9 | 2.8 | 3.3 | 2.1 | odour on dry hair [4]: vanilla, sweet
10 | CC/C=C\C/C=C\CCOc1ccc(C=O)cc1OCC [Example 30, 3-ethoxy-4-(((3Z,6Z)-nona-3,6-dien-1-yl)oxy)benzaldehyde] | green, leaf aldehyde, green apple, powdery, vanilla | – | – | – | 3.4 | 4.1 | 2.7 | odour intensity, 1 day [1, 7]: 3.4; odour on dry fabric [1, 8]: vanilla, green; odour intensity, wet [1, 9]: 2.7; odour released on dry fabric [1]: strong and pleasant odour; odour intensity, 3 days [2]: 4.1
11 | CC(=O)CCc1ccc(OCCC=C(C)CCc2ccccc2)cc1 [Example 52, 4-(4-((4-methyl-6-phenylhex-3-en-1-yl)oxy)phenyl)butan-2-one] | sweet, crystal sugar, fruity, raspberry | – | – | – | 2.9 | 3.3 | 1.6 | odour on dry fabric [1, 13]: raspberry, sweet
12 | C=CCc1ccc(OC(CC=C)CCCCCCCCC)c(OC)c1 (stereo not drawn) [4-allyl-2-methoxy-1-(tridec-1-en-4-yloxy)benzene] | – | – | – | – | 2.1 | 2.7 | 2.1 | –
13 | C=CCC(CCCCCCCCC)Oc1ccc(CCC(C)=O)cc1 (stereo not drawn) [Example 36, 4-(4-(tridec-1-en-4-yloxy)phenyl)butan-2-one] | fruity, juicy, raspberry, aldehydic, green, metallic | 2.3 | 1.9 | 1.6 | – | – | – | –
14 | CCOc1cc(C=O)ccc1O [ethylvanillin, 3-ethoxy-4-hydroxybenzaldehyde] | – | – | – | – | – | – | – | Colour of liquid detergent sample (visual inspection) [6]: strong purple coloration; also recorded: colors the base
15 | C=CCC(CC/C=C\CC)Oc1cc(C)c(C(=O)OC)c(O)c1C (stereo not drawn) [Example 69, methyl (Z)-4-(deca-1,7-dien-4-yloxy)-2-hydroxy-3,6-dimethylbenzoate] | powdery green marine (evernyl) | – | – | – | 1.9 | 2.5 | 0.5 | odour on dry fabric [1, 13]: mossy, woody
16 | CC/C=C/CC(CCCCCCCCC)Oc1ccc(C=O)cc1OCC (stereo not drawn) [Example 29, (E)-3-ethoxy-4-(pentadec-3-en-6-yloxy)benzaldehyde] | powdery, creamy, vanilla, aldehydic, mandarin | – | – | – | – | – | – | Biodegradation in % [5]: 70%
17 | C=CCC(CCCCCCCCCC)Oc1ccc(C=O)cc1OC (stereo not drawn) [Example 38, 3-methoxy-4-(tetradec-1-en-4-yloxy)benzaldehyde] | powdery, vanilla, creamy, aldehydic, mandarin, madeleine | – | – | – | 3.0 | 3.2 | 2.2 | odour on dry fabric [1, 13]: madeleine
18 | CC/C=C\C/C=C\CCOc1ccc(C=O)cc1OC [Example 34, 3-methoxy-4-(((3Z,6Z)-nona-3,6-dien-1-yl)oxy)benzaldehyde] | green, leaf aldehyde, powdery, vanilla | – | – | – | – | – | – | –
19 | COc1ccc(CCC(C)=CCCOc2ccc(CCC(C)=O)cc2)cc1 [Example 55, 4-(4-((6-(4-methoxyphenyl)-4-methylhex-3-en-1-yl)oxy)phenyl)butan-2-one] | sweet, fruity, raspberry | 1.1 | 2.8 | 3.0 | – | – | – | –
20 | C=CCC(CC/C=C\CC)Oc1ccc(C=O)cc1OCC (stereo not drawn) [Example 12, (Z)-4-(deca-1,7-dien-4-yloxy)-3-ethoxybenzaldehyde] | powdery (vanilla) | – | – | – | 3.0 | 3.7 | 0.4 | –
21 | CCCCCC[C@@H](C/C=C\CCCCCCCC(=O)OC)Oc1ccc(C=O)cc1OCC [Example 1, methyl (S,Z)-12-(2-ethoxy-4-formylphenoxy)octadec-9-enoate] | powdery, vanillin, green, fatty | – | – | – | – | – | – | Biodegradation in % [5]: 90%
22 | CC/C=C/CC(CCC)Oc1ccc(C=O)cc1OCC (stereo not drawn) [Example 19, (E)-3-ethoxy-4-(non-6-en-4-yloxy)benzaldehyde] | vanilla powdery creamy | – | – | – | – | – | – | –
